In patent US20240025907A1, “QUINAZOLINE PAN-KRas INHIBITORS” (Mirati Therapeutics, Inc., priority 2022, published 2024):
Where two headings read alike, the source gives them in different places.

Experiments:
Format in all cases: cell-based
[1] = system: KRas-mediated Phosphorylation of ERK in PSN1 cells; assay: Cisbio HTRF pERK assay, PSN1 cells; conditions: 3 hour compound, read-out: Inhibition (HTRF IC50 nM) of KRas-mediated Phosphorylation of ERK, PSN1
Protocol: Inhibition of KRas Phosphorylation of ERK (HTRF) by Exemplary Compounds of Formula (I) • Cisbio HTRF Advanced pERK Assay Catalog #64AERPEH • Cell: MKN1, PSN1 • Procedure: • Day 1: Seed 6,000 cells/well −25 μl/well in 384-well white solid bottom plate; RPM1_10% FBS.

[2] = system: KRas-mediated Phosphorylation of ERK in HCT116 cells; assay: Cisbio HTRF pERK assay, HCT116 cells; conditions: HCT116 cells, 3 hrs compound, read-out: Inhibition (HTRF IC50 nM) of KRas-mediated Phosphorylation of ERK, HCT116
[3] = system: KRas-mediated Phosphorylation of ERK in H727 cells; assay: Cisbio HTRF pERK assay, H727 cells; conditions: 3 hrs compound, read-out: Inhibition (HTRF IC50 nM) of KRas-mediated Phosphorylation of ERK, H727
[4] = system: KRas-mediated Phosphorylation of ERK in AsPC-1 cells; assay: Cisbio HTRF pERK assay, AsPC-1 cells; conditions: 3 hrs compound, read-out: Inhibition (HTRF IC50 nM) of KRas-mediated Phosphorylation of ERK, AsPC-1
[5] = system: KRas-mediated Phosphorylation of ERK in A549 cells; assay: Cisbio HTRF pERK assay, A549 cells; conditions: A549 cells, 3 hrs compound, read-out: Inhibition (HTRF IC50 nM) of KRas-mediated Phosphorylation of ERK, A549
[6] = system: KRas-mediated Phosphorylation of ERK in H358 cells; assay: Cisbio HTRF pERK assay, H358 cells; conditions: H358 cells, 3 hrs compound, read-out: Inhibition (HTRF IC50 nM) of KRas-mediated Phosphorylation of ERK, H358
[7] = system: KRas-mediated Phosphorylation of ERK in H460 cells; assay: Cisbio HTRF pERK assay, H460 cells; conditions: H460 cells, 3 hrs compound, read-out: Inhibition (HTRF IC50 nM) of KRas-mediated Phosphorylation of ERK, H460

SMILES	IC50 [1] [nM]	IC50 [2] [nM]	IC50 [3] [nM]	IC50 [4] [nM]	IC50 [5] [nM]	IC50 [6] [nM]	IC50 [7] [nM]	IC50 ([1]; Homo sapiens, PSN1, 3 h) [nM]	IC50 ([2]; Homo sapiens, HCT-116, 3 h) [nM]	IC50 ([3]; Homo sapiens, NCI-H727, 3 h) [nM]	IC50 ([4]; Homo sapiens, ASPC1, 3 h) [nM]	IC50 ([5]; Homo sapiens, A549, 3 h) [nM]	IC50 ([6]; Homo sapiens, NCI-H358, 3 h) [nM]	IC50 ([7]; Homo sapiens, NCI-H460, 3 h) [nM]
C=C1CN2CCC[C@]2(COc2nc(N3CC4CCC(C3)N4)c3cc(Cl)c(-c4ccc(F)c5sc(N)c(C#N)c45)c(F)c3n2)C1 [Example 181, (S)-4-(4-((1R,5S)-3,8-diazabicyclo[3.2.1]octan-3-yl)-6-chloro-8-fluoro-2-(((R)-2-methylenetetrahydro-1H-pyrrolizin-7a(5H)-yl)methoxy)quinazolin-7-yl)-2-amino-7-fluorobenzo[b]thiophene-3-carbonitrile]	5260	8030	8500	950	> 10000	4560	9660	–	–	–	–	–	–	–
C=C1CN2CCC[C@]2(COc2nc(N3CC4CCC(C3)N4)c3cc(Cl)c(-c4ccc(F)c5sc(N)c(C#N)c45)c(F)c3n2)C1 [Example 182, (R)-4-(4-((1R,5S)-3,8-diazabicyclo[3.2.1]octan-3-yl)-6-chloro-8-fluoro-2-(((R)-2-methylenetetrahydro-1H-pyrrolizin-7a(5H)-yl)methoxy)quinazolin-7-yl)-2-amino-7-fluorobenzo[b]thiophene-3-carbonitrile]	1820	114	1390	4	377	136	207	–	–	–	–	–	–	–
C=C1CN2CCC[C@@]2(COc2nc(N3CC4CCC(C3)N4)c3cc(Cl)c(-c4ccc(F)c5sc(N)c(C#N)c45)c(F)c3n2)C1 [Example 183, (S)-4-(4-((1R,5S)-3,8-diazabicyclo[3.2.1]octan-3-yl)-6-chloro-8-fluoro-2-(((S)-2-methylenetetrahydro-1H-pyrrolizin-7a(5H)-yl)methoxy)quinazolin-7-yl)-2-amino-7-fluorobenzo[b]thiophene-3-carbonitrile]	6150	4800	> 10000	254	> 10000	6740	8090	–	–	–	–	–	–	–
C=C1CN2CCC[C@@]2(COc2nc(N3CC4CCC(C3)N4)c3cc(Cl)c(-c4ccc(F)c5sc(N)c(C#N)c45)c(F)c3n2)C1 [Example 184, (R)-4-(4-((1R,5S)-3,8-diazabicyclo[3.2.1]octan-3-yl)-6-chloro-8-fluoro-2-(((S)-2-methylenetetrahydro-1H-pyrrolizin-7a(5H)-yl)methoxy)quinazolin-7-yl)-2-amino-7-fluorobenzo[b]thiophene-3-carbonitrile]	701	39	610	1	160	40	82	–	–	–	–	–	–	–
CN(C)C(=O)n1cc2c(n1)CCCN(c1nc(OC[C@@]34CCCN3C[C@H](F)C4)nc3c(F)c(-c4ccc(F)c5sc(N)c(C#N)c45)c(Cl)cc13)C2 [Example 185, 5-((R)-7-(2-amino-3-cyano-7-fluorobenzo[b]thiophen-4-yl)-6-chloro-8-fluoro-2-(((2R,7aS)-2-fluorotetrahydro-1H-pyrrolizin-7a(5H)-yl)methoxy)quinazolin-4-yl)-N,N-dimethyl-5,6,7,8-tetrahydropyrazolo[4,3-c]azepine-2(4H)-carboxamide]	1800	17	3	2	12	1	9	–	–	–	–	–	–	–
N#Cc1c(N)sc2c(F)ccc(-c3c(Cl)cc4c(N5CCCn6nc(N)cc6C5)nc(OC[C@@]56CCCN5C[C@H](F)C6)nc4c3F)c12 [Example 187, 2-amino-4-(4-(2-amino-7,8-dihydro-4H-pyrazolo[1,5-a][1,4]diazepin-5(6H)-yl)-6-chloro-8-fluoro-2-(((2R,7aS)-2-fluorotetrahydro-1H-pyrrolizin-7a(5H)-yl)methoxy)quinazolin-7-yl)-7-fluorobenzo[b]thiophene-3-carbonitrile]	–	–	–	–	–	–	–	1060	176	148	41	106	12	78
N#Cc1c(N)sc2c(F)ccc(-c3c(Cl)cc4c(N5C=C(CCO)CCCC5)nc(OC[C@@]56CCCN5C[C@H](F)C6)nc4c3F)c12 [Example 190, 2-amino-4-(6-chloro-8-fluoro-2-(((2R,7aS)-2-fluorotetrahydro-1H-pyrrolizin-7a(5H)-yl)methoxy)-4-(6-(2-hydroxyethyl)-2,3,4,5-tetrahydro-1H-azepin-1-yl)quinazolin-7-yl)-7-fluorobenzo[b]thiophene-3-carbonitrile]	–	–	–	–	–	–	–	5570	596	870	627	525	330	347
N#Cc1c(N)sc2c(F)ccc(-c3c(Cl)cc4c(N5CCCCC(=O)C5)nc(OC[C@@]56CCCN5C[C@H](F)C6)nc4c3F)c12 [Example 191, 2-amino-4-(6-chloro-8-fluoro-2-(((2R,7aS)-2-fluorotetrahydro-1H-pyrrolizin-7a(5H)-yl)methoxy)-4-(3-oxoazepan-1-yl)quinazolin-7-yl)-7-fluorobenzo[b]thiophene-3-carbonitrile]	–	–	–	–	–	–	–	798	11	12	8	11	2	10
N#Cc1c(N)sc2c(F)ccc(-c3c(Cl)cc4c(NCc5cn[nH]c5)nc(OC[C@@]56CCCN5C[C@H](F)C6)nc4c3F)c12 [Example 199, 4-(4-(((1H-pyrazol-4-yl)methyl)amino)-6-chloro-8-fluoro-2-(((2R,7aS)-2-fluorotetrahydro-1H-pyrrolizin-7a(5H)-yl)methoxy)quinazolin-7-yl)-2-amino-7-fluorobenzo[b]thiophene-3-carbonitrile]	–	–	–	–	–	–	–	3860	889	4090	4200	1180	232	462
CN(c1nc(OC[C@@]23CCCN2C[C@H](F)C3)nc2c(F)c(-c3ccc(F)c4sc(N)c(C#N)c34)c(Cl)cc12)C1CC1 [Example 203, 2-amino-4-(6-chloro-4-(cyclopropyl(methyl)amino)-8-fluoro-2-(((2R,7aS)-2-fluorotetrahydro-1H-pyrrolizin-7a(5H)-yl)methoxy)quinazolin-7-yl)-7-fluorobenzo[b]thiophene-3-carbonitrile]	–	–	–	–	–	–	–	4790	661	226	501	307	82	306
N#Cc1c(N)sc2c(F)ccc(-c3c(Cl)cc4c(NCCO)nc(OC[C@@]56CCCN5C[C@H](F)C6)nc4c3F)c12 [Example 205, 2-amino-4-(6-chloro-8-fluoro-2-(((2R,7aS)-2-fluorotetrahydro-1H-pyrrolizin-7a(5H)-yl)methoxy)-4-((2-hydroxyethyl)amino)quinazolin-7-yl)-7-fluorobenzo[b]thiophene-3-carbonitrile]	–	–	–	–	–	–	–	7120	985	554	1740	574	71	690
N#Cc1c(N)sc2c(F)ccc(-c3c(Cl)cc4c(N5CCC5)nc(OC[C@@]56CCCN5C[C@H](F)C6)nc4c3F)c12 [Example 206, 2-amino-4-(4-(azetidin-1-yl)-6-chloro-8-fluoro-2-(((2R,7aS)-2-fluorotetrahydro-1H-pyrrolizin-7a(5H)-yl)methoxy)quinazolin-7-yl)-7-fluorobenzo[b]thiophene-3-carbonitrile]	–	–	–	–	–	–	–	4890	367	55	246	244	60	173
